Data reported in paper PMC4545913, “Dual EZH2 and EHMT2 histone methyltransferase inhibition increases biological efficacy in breast cancer cells” (Clinical Epigenetics, 2015).
pIC50: −log10 of the molar value.

Assays:
[1] = test system: H3K27me3 and H3K9me3 at target genes; experiment: Chromatin immunoprecipitation (ChIP-PCR) in MDA-MB-231 cells; type: cell-based; conditions: MDA-MB-231, 2.5 μM, 24 h
Description: Fig. 3 Effects of hit compounds on RNA levels and histone marks. a Sybr green real-time PCR mRNA level measurement of EZH2 target genes and executing enzymes following a 48-h compound treatment at different concentrations of MDA-MB-231 cells. Measurements marked with an ‘*’ are below detection limit, most likely due to cell death. […] Error bars represent the mean ± SD of experiment performed in technical triplicate. b Sybr green real-time PCR measurement of the FBXO32 transcription start site and KRT17 promoter region following chromatin immunoprecipitation, using antibodies to the histone marks shown, of MDA-MB-231 cells treated with three selected compounds at 5 μM for 72 h. […] The fold difference to the untreated sample is shown. Each IP-value has been determined as the relative increase to the no-antibody control and then normalised to GAPDH levels
Fig. 4 Compound-induced upregulation of EZH2-repressed target genes. a Enrichment scores for differential expression of EZH2 targets on treatment with panel of compounds. […] Each IP-value has been determined as the relative increase to the no-antibody control and is shown as fold difference relative to the untreated control. d Western blot showing levels of modified histones, following a 48-h treatment with HKMTI-1-005 at different doses. […]

[2] = target: trimeric PRC2 complex (EZH2:EED:SUZ12) (Homo sapiens, UniProt O75530+Q15022+Q15910); experiment: PRC2 enzymatic assay (SPA-type), biotinylated-H3 (21–44) peptide substrate; type: biochemical; conditions: EZH2:EED:SUZ12, biotinylated-H3 (21–44) peptide substrate
Description: (§1) A trimeric PRC2 complex (EZH2:EED:SUZ12) was employed in this assay, along with a biotinylated-H3 (21–44) peptide substrate. […] Since the peptide substrates used in these assays are poor models for the complex and dynamic structure of the chromatin substrate in cells and since the only minimal number of PRC2 proteins (EZH2:EED:SUZ12) required for enzymatically active EZH2 were employed in the PRC2 assay, care should be taken in the over interpretation of this in vitro inhibitory data.

[3] = target: trimeric PRC2 complex (EZH2:EED:SUZ12) (Homo sapiens, UniProt Q15910); experiment: as above; type: biochemical; conditions: mechanism of inhibition studies (Figure S4)
Description: as §1

breast cancer cell lines = experiment: MTT anti-proliferative effect on a small panel of breast cancer cell lines; type: cell-based; conditions: read-out: Anti-proliferative IC50 values, range over panel
Protocol: The anti-proliferative effect of HKMTI-1-005 on a small panel of breast cancer cell lines was determined, with IC50 values in the range 2–10 μM (Table 3). […] The breast cancer cell line BT-474, which is the cell line most sensitive to HKMTI-1-005 treatment, has the highest relative expression of EZH2, as detected by Western analysis (data not shown).
For clonogenic assays, cells were treated with compound for 48 h, media were removed and replaced with fresh media for a further 12 days to measure colony formation. For cell viability assays, lymphoma cells were plated at 20,000 cells in 200 μl per well in U-bottom 96 well plates in RPMI medium +20 % FCS. Cells were re-suspended 48 h later, diluted 10-fold in PBS + propidium iodide (PI) and the concentration of PI negative cells was counted using an Attune flow cytometer with autosampler. Breast cancer cells were seeded at a density of 10,000 cells/well in a sterile 96 clear-well plate with 150 μl of DMEM (+10 % FCS and 2 mM L-Glutamine). Each compound treatment was performed in triplicate for 72 h at concentrations of 100 nM and 1, 5, 10 and 50 μM in 100 μl of full-medium. After 72 h, 20 μl of MTT solution (3 mg of MTT Formazan, Sigma/1 ml PBS) was added to the medium and incubated for 4 h at 37 °C in a CO2 incubator. […] The optical density was read at 570 nm with PHERAstar.

H3K27me3 and H3K9me3 = experiment: Western analysis of global histone marks in MDA-MB-231 cells; type: cell-based; conditions: range of doses
Protocol: MDA-MB-231 cells seeded in 6 well plates at a cell density of 3 x 10^5 were treated with HKMTI-1-005 (1–7.5uM) for 48 h. Following lysis in Triton Extraction Buffer (TEB, PBS containing 0.5 % Triton ×100 (v/v), 1/1000 protease inhibitor), nuclei were re-suspended in 0.2 N HCL at a density of 4 x 10^7 nuclei per millilitre and incubated overnight at 4 °C to acid-extract the histones, before being centrifuged at 6500g for 10 min at 4 °C. Protein concentration was determined using the Bradford assay. H3K27me3, H3K9me3, H3K9me2, H3K9me and total H3 protein expression levels in the histone extract samples were determined using Western blot analysis using H3K27me3 (1:1000; Abcam), H3K9me3 (1:1000; Abcam), H3K9me (1:1000) and H3 (1:2000; Abcam) antibodies. After washing, the membrane was incubated with a horseradish peroxidase-labelled secondary antibody (1 h, room temperature). The membrane was incubated for 1 min with 5 mL of Pierce ECL Western blotting substrate (Thermo Scientific). Images were captured using Konica Minolta SRX101A Tabletop X-Ray film processor.

MDA-MB-231 cells = experiment: Clonogenic growth assay; type: cell-based; conditions: Homo sapiens; MDA-MB-231, 48 h treatment then 12 days in fresh media
Protocol: For clonogenic assays, cells were treated with compound for 48 h, media were removed and replaced with fresh media for a further 12 days to measure colony formation. For cell viability assays, lymphoma cells were plated at 20,000 cells in 200 μl per well in U-bottom 96 well plates in RPMI medium +20 % FCS. Cells were re-suspended 48 h later, diluted 10-fold in PBS + propidium iodide (PI) and the concentration of PI negative cells was counted using an Attune flow cytometer with autosampler. Breast cancer cells were seeded at a density of 10,000 cells/well in a sterile 96 clear-well plate with 150 μl of DMEM (+10 % FCS and 2 mM L-Glutamine). Each compound treatment was performed in triplicate for 72 h at concentrations of 100 nM and 1, 5, 10 and 50 μM in 100 μl of full-medium. After 72 h, 20 μl of MTT solution (3 mg of MTT Formazan, Sigma/1 ml PBS) was added to the medium and incubated for 4 h at 37 °C in a CO2 incubator. The MTT-product was solubilised with 100 μl DMSO, and for 1 h, incubated in the dark at room temperature. The optical density was read at 570 nm with PHERAstar.

Chain of trimeric PRC2 complex (EZH2:EED:SUZ12) (Homo sapiens, UniProt Q15910) (Q15910 whole entry): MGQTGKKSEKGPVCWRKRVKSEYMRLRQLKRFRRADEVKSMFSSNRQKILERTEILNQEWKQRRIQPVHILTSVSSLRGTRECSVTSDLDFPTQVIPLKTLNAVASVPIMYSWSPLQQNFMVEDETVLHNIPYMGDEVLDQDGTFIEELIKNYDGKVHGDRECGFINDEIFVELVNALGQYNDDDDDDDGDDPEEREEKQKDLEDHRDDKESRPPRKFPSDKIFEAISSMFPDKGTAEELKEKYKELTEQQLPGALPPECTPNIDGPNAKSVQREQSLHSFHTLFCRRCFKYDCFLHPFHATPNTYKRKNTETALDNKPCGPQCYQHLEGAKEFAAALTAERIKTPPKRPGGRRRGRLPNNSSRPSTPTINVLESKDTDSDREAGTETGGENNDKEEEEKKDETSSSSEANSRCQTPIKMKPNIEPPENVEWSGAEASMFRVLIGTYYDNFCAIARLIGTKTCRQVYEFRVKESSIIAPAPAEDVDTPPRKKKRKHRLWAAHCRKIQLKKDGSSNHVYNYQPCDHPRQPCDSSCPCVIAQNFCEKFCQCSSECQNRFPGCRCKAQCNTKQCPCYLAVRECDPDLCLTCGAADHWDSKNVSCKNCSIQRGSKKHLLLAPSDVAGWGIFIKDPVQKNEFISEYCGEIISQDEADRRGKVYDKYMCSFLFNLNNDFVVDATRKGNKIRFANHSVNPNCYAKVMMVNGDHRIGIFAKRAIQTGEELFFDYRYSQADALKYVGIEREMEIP
Chain of trimeric PRC2 complex (EZH2:EED:SUZ12) (Homo sapiens, UniProt Q15910) (O75530 whole entry partner): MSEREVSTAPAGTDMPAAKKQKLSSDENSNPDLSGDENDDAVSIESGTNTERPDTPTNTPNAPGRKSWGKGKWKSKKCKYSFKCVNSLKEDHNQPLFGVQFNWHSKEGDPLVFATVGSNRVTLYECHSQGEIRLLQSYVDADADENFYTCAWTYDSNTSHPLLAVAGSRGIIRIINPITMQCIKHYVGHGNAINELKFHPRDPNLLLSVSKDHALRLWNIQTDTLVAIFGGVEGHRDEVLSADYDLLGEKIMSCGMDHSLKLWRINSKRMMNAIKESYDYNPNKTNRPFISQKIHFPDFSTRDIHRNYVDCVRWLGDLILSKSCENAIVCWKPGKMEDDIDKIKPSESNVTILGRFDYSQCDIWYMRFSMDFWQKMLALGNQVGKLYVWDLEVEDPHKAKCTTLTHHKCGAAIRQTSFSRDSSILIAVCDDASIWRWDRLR
Chain of trimeric PRC2 complex (EZH2:EED:SUZ12) (Homo sapiens, UniProt Q15910) (Q15022 whole entry partner): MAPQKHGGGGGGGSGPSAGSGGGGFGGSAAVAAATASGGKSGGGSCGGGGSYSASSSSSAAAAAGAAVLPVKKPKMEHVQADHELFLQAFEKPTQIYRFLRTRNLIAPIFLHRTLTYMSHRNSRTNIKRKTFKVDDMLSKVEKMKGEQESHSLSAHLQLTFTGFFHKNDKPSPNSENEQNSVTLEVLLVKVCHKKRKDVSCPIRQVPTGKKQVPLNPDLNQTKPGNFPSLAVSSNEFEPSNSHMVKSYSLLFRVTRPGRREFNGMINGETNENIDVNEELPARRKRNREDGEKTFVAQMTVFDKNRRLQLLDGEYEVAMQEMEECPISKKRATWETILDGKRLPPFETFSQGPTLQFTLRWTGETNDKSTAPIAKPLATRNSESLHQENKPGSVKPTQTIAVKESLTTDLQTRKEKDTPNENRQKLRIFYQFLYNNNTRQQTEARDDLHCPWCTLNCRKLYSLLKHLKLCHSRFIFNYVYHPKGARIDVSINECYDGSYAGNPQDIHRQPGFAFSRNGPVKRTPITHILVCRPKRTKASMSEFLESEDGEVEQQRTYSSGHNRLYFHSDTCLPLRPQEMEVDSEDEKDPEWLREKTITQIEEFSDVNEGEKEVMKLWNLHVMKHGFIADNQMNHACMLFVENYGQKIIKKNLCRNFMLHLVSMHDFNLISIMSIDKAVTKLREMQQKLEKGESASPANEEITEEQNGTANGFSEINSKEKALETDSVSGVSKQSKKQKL
Chain of trimeric PRC2 complex (EZH2:EED:SUZ12) (Homo sapiens, UniProt O75530+Q15022+Q15910) (Q15910 whole entry): as the sequence (Q15910 whole entry) above
Chain of trimeric PRC2 complex (EZH2:EED:SUZ12) (Homo sapiens, UniProt O75530+Q15022+Q15910) (O75530 whole entry partner): as the sequence (O75530 whole entry partner) above
Chain of trimeric PRC2 complex (EZH2:EED:SUZ12) (Homo sapiens, UniProt O75530+Q15022+Q15910) (Q15022 whole entry partner): as the sequence (Q15022 whole entry partner) above

COc1cc2nc(N3CCN(C)CC3)nc(NC3CCN(Cc4ccccc4)CC3)c2cc1OC [HKMTI-1-005]
H3K27me3 and H3K9me3 at the SPINK1 transcription start site (ChIP-PCR) [1]: reduction in both H3K27me3 and H3K9me3
pIC50 [2]: 4.62
Mechanism of PRC2 inhibition [3]: peptide substrate competitive
pIC50 (breast cancer cell lines): 5.00 to 5.70
Global levels of H3K27me3 and H3K9me3 (Western) (H3K27me3 and H3K9me3): reduced
pIC50 (MDA-MB-231 cells): 6.39
